Measurements published in patent US4338122A, “Biocidal 2-aryl-1,3-cyclopentanedione compounds and alkali metal and ammonium salts thereof” (Union Carbide Corporation, priority 1980, dated 1982).
In brackets after ≈: the same amount, converted by molar mass.

Columns and labels:
[1] = system: Perennial rye grass; assay: Preliminary herbicide seed germination test (pre-emergent), rye grass; format: in vivo, Solium perenne; parameters: key: 5: no seedling emerged; 4: few seedlings emerged and/or very severe stunting; 3: moderate reduction in stand and/or moderate stunting; 2: very slight reduction in stand and/or slight stunting; 1: no injury; seedlings appear no different with respect to stand or growth than untreated controls; details: ten to twelve days after application
Experimental: (§1) Suspensions of the test compounds were prepared by dissolving one gram of compound in 50 milliliters of acetone in which had been dissolved 0.1 gram (10 percent of the weight of compound) of an alkylphenoxyethoxyethanol surfactant, as an emulsifying or dispersing agent. The resulting solution was mixed into 160 milliliters of water to give roughly 200 milliliters of a suspension containing the compound in finely divided form. The thus prepared stock suspension contained 0.5 percent by weight of compound. The test concentrations employed in the tests described herein below were obtained by diluting the stock suspension with water. The test procedures were as follows:
(§2) The following seeds were used in this test:
Perennial rye grass--Solium perenne
(§3) Two soil-seed mixtures were prepared as follows:
(§4) Each of the above mixtures was rolled separately in 5 gallon containers for approximately one-half hour on ball mill to insure uniform mixing of seeds and soil. For each compound four 3-inch pots were filled with soil to within 11/2 inches of top of pots. To two of these pots were added 70 cc. of Mixture I. To the remaining 2 pots were added 70 cc. of Mixture II. The seed-soil mixture was tamped firmly, and the pots were removed to the green-house and watered lightly. About 2 hours after planting, 25 milliliters of the test formulation were added to one pot containing Mixture I and one pot containing Mixture II. An equal volume of a water solution containing acetone and an emulsifier in the same concentration as the herbicidal mixture but without the candidate herbicide was also added to each of the soil-seed mixtures. These pots are used as check or control units. The test compounds were formulated by diluting the stock suspension with water to obtain the desired concentration of the compound in parts per million of the final formulation. Each compound was tested at the same concentration. […] Ratings were made according to the following designations:
(§5) Tests were conducted in accordance with the procedures given at pages 32 to 37 supra. The results are expressed in the same manner as used in Table I, except with respect to miticidal activity. For mite adult and mite egg comparison purposes, results are given in parts per million (ppm) required for a 50 percent kill of mites or eggs, respectively.

[2] = system: Red root pigweed (Amaranthus); assay: Preliminary herbicide seed germination test (pre-emergent), Amaranthus; format: in vivo, Amaranthus retroflexus; parameters: key: 5: no seedling emerged; 4: few seedlings emerged and/or very severe stunting; 3: moderate reduction in stand and/or moderate stunting; 2: very slight reduction in stand and/or slight stunting; 1: no injury; seedlings appear no different with respect to stand or growth than untreated controls; details: ten to twelve days after application
Experimental: as §1, §2
Red root pigweed--Amaranthus retroflexus
as §3, §4, §5

[3] = system: Soybean; assay: Post-emergent herbicidal test, soybean; format: in vivo; parameters: key: 1: no perceptible injury; 2: intermediate degrees of injury based upon the number and extent to which leaves were injured; 3: intermediate degrees of injury based upon the number and extent to which leaves were injured; 4: intermediate degrees of injury based upon the number and extent to which leaves were injured; 5: the plant was dead; details: 2500 parts per million, after ten days
Experimental: as §1
Experiments were also conducted to determine the phytotoxicity of representative compositions with respect to healthy fresh plants. Solutions of the compounds were prepared as described above to provide a concentration of 2500 parts per million of the test compound. The test plants were sprayed in accordance with the procedure described above for the Mite Foliage Spray Test so as to deliver approximately 100 milliliters of test solutions to the leaves of each plant tested. The sprayed plants and controls were set aside for approximately one hour to allow the solutions to dry and were then placed in the greenhouse. After ten days the plants were visually inspected to determine the extent of foliage injury. A rating of 1 indicates no perceptible injury; 5 indicates the plant was dead and ratings of 2, 3 and 4 indicate intermediate degrees of injury based upon the number and extent to which leaves were injured.
as §5

[4] = system: two-spotted mite (Tetranychus urticae (Koch)), adults and nymphal stages; assay: Mite Foliage Spray Test (adult miticidal); format: in vivo; parameters: key to Miticidal, Adult (control rating): A: Excellent Control; B: Partial Control; No Control; details: for Miticidal, Adult (control rating): Table I, mortality count four days after spraying; for LC50: Tetranychus urticae, foliar, Table II, read-out: Miticidal LD50, Adult (ppm required for a 50 percent kill of mites)
Experimental: as §1
Adults and nymphal stages of the two-spotted mite (Tetranychus urticae (Koch)), reared on Tendergreen bean plants at 80°±5° F. and 50±5 percent relative humidity, were the test organisms. Infested leaves from a stock culture were placed on the primary leaves of two bean plants six to eight inches in height, growing in a two-and-a-half inch clay pot. 150-200 Mites, a sufficient number for testing, transferred from the excised leaves to the fresh plants in a period of twenty-four hours. Following the twenty-four hour transfer period, the excised leaves were removed from the infested plants. The test compounds were formulated by diluting the stock suspension with water to provide suspensions containing the desired amount of test compound per million parts of final formulation. The potted plants (one pot per compound) were placed on a revolving turntable and sprayed with 100-110 milliliters of test compound formulation by use of a DeVilbis spray gun set at 40 psi. air pressure. This application, which lasted 30 seconds, was sufficient to wet the plants to run-off. As a control, 100-110 milliliters of a water solution containing acetone and emulsifier in the same concentrations as the test compound formulation, but containing no test compound, were also sprayed on infested plants. The sprayed plants were held at 80°±5° F. and 50±5 percent relative humidity for four days, after which, a mortality count of motile forms was made on the leaves of the test plants. Any individual which was capable of locomotion upon prodding was considered living.
(§6) In these tests the pesticidal activity of the compounds against mites and mite eggs were rated as follows:
as §5

[5] = system: egg of the two-spotted mite (Tetranychus urticae (Koch)); assay: Mite Ovicide Test (egg); format: in vivo; parameters: key to Miticidal, Egg (control rating): A: Excellent Control; B: Partial Control; No Control; details: for Miticidal, Egg (control rating): Table I, unhatched/hatched eggs four days after spraying; for LC50: Tetranychus urticae, Table II, read-out: Miticidal LD50, Egg (ppm required for a 50 percent kill of eggs)
Experimental: as §1
The test organism was the egg of the two-spotted mite (Tetranychus urticae (Koch)), as obtained from adults reared on Tendergreen bean plants under controlled conditions of 80°±5° F. and 50±5 percent relative humidity. Heavily infested leaves from a stock culture were placed on the primary leaves of two bean plants six to eight inches in height growing in a two-and-a-half inch clay pot. Females were allowed to oviposit for a period of 48 hours and then the leaves of the infested plants were dipped in a solution containing 800 parts of tetraethyl pyrophosphate per million parts of water in order to destroy the reproductory forms and thus prevent further egg laying. […] The plants were allowed to dry thoroughly. The test compounds were formulated by diluting the stock suspension with water to give a suspension containing varying amounts of test compound per million parts of final formulation. The potted plants (one pot per compound) were placed on a revolving turntable and sprayed with 100-110 milliliters of test compound formulation by use of a DeVilbis spray gun set at 40 spig. air pressure. This application which lasted 30 seconds, was sufficient to wet the plants to run-off. As a control, 100-110 milliliters of a water solution containing acetone and emulsifier in the same concentrations as the test compound formulation, but containing no test compound, were also sprayed on plants infested with eggs. The sprayed plants were held at 80°±5° F. and 50±5 percent relative humidity for four days, after which a microscopic examination was made of unhatched (dead) and hatched (living) eggs.
as §6, §5

Cc1ccc(C2C(=O)C3CCCCC3C2=O)c(C)c1 (stereo not shown) [CH3 CH3 H (CH2)4, 2-(2',4'-dimethylphenyl)-4,5,6,7,8,9-hexahydro-1,3-indandione]
Pre-emergent Herbicidal, Rye (injury rating) ([1]; Table I): 5
Pre-emergent Herbicidal, Rye (injury rating) ([1]; Table II): 5
Pre-emergent Herbicidal, Amaranthus (injury rating) ([2]; Table I): 5
Pre-emergent Herbicidal, Amaranthus (injury rating) ([2]; Table II): 5
Post-Emergent Herbicidal, Soybean (injury rating) ([3]; Table I): 5
Post-Emergent Herbicidal, Soybean (injury rating) ([3]; Table II): 1
Miticidal, Adult (control rating) [4]: A
LC50 [4]: 7 µg/mL (≈ 27.3 µM)
Miticidal, Egg (control rating) [5]: A
LC50 [5]: 15 µg/mL (≈ 58.5 µM)

Cc1ccc(C2C(=O)CCC2=O)c(C)c1 [CH3 CH3 H H H, 2-(2',4'-dimethylphenyl)-1,3-cyclopentanedione]
Pre-emergent Herbicidal, Rye (injury rating) ([1]; Table I): 5
Pre-emergent Herbicidal, Rye (injury rating) ([1]; Table II): 5
Pre-emergent Herbicidal, Amaranthus (injury rating) ([2]; Table I): 5
Pre-emergent Herbicidal, Amaranthus (injury rating) ([2]; Table II): 5
Post-Emergent Herbicidal, Soybean (injury rating) ([3]; Table I): 1
Post-Emergent Herbicidal, Soybean (injury rating) ([3]; Table II): 1
Miticidal, Adult (control rating) [4]: A
LC50 [4]: 15 µg/mL (≈ 74.2 µM)
Miticidal, Egg (control rating) [5]: A
LC50 [5]: 110 µg/mL (≈ 544 µM)

Cc1ccc(C)c(C2C(=O)C3CCCCC3C2=O)c1 (stereo not shown) [CH3 H CH3 (CH2)4, 2-(2',5'-dimethylphenyl)-4,5,6,7,8,9-hexahydro-1,3-indandione]
Pre-emergent Herbicidal, Rye (injury rating) ([1]; Table I): 1
Pre-emergent Herbicidal, Rye (injury rating) ([1]; Table II): 1
Pre-emergent Herbicidal, Amaranthus (injury rating) ([2]; Table I): 1
Pre-emergent Herbicidal, Amaranthus (injury rating) ([2]; Table II): 1
Post-Emergent Herbicidal, Soybean (injury rating) ([3]; Table I): 1
Post-Emergent Herbicidal, Soybean (injury rating) ([3]; Table II): 1
Miticidal, Adult (control rating) [4]: A
LC50 [4]: 35 µg/mL (≈ 137 µM)
Miticidal, Egg (control rating) [5]: A
LC50 [5]: 30 µg/mL (≈ 117 µM)

Cc1ccc(C)c(C2C(=O)CC(C)C2=O)c1 (stereo not shown) [CH3 H CH3 CH3 H, 2-(2',5'-Dimethylphenyl)-4-methyl-1,3-cyclopentanedione]
Pre-emergent Herbicidal, Rye (injury rating) ([1]; Table I): 4
Pre-emergent Herbicidal, Amaranthus (injury rating) ([2]; Table I): 3
Post-Emergent Herbicidal, Soybean (injury rating) ([3]; Table I): 2
Miticidal, Adult (control rating) [4]: A
Miticidal, Egg (control rating) [5]: B

Cc1ccc(C)c(C2C(=O)CCC2=O)c1 [CH3 H CH3 H H]
Pre-emergent Herbicidal, Rye (injury rating) ([1]; Table I): 4
Pre-emergent Herbicidal, Amaranthus (injury rating) ([2]; Table I): 3
Post-Emergent Herbicidal, Soybean (injury rating) ([3]; Table I): 3
Miticidal, Adult (control rating) [4]: A
Miticidal, Egg (control rating) [5]: B

Cc1ccccc1C1C(=O)C2CCCCC2C1=O (stereo not shown) [CH3 H H (CH2)4, 2-(2'-Methylphenyl)-4,5,6,7,8,9-hexahydro-1,3 indandione]
Pre-emergent Herbicidal, Rye (injury rating) ([1]; Table I): 5
Pre-emergent Herbicidal, Rye (injury rating) ([1]; Table II): 5
Pre-emergent Herbicidal, Amaranthus (injury rating) ([2]; Table I): 3
Pre-emergent Herbicidal, Amaranthus (injury rating) ([2]; Table II): 3
Post-Emergent Herbicidal, Soybean (injury rating) ([3]; Table I): 1
Post-Emergent Herbicidal, Soybean (injury rating) ([3]; Table II): 1
Miticidal, Adult (control rating) [4]: A
LC50 [4]: 12 µg/mL (≈ 49.5 µM)
Miticidal, Egg (control rating) [5]: A
LC50 [5]: 22 µg/mL (≈ 90.8 µM)

Cc1ccccc1C1C(=O)CCC1=O [CH3 H H H H, 2-(2'-methylphenyl)-1,3-cyclopentanedione]
Pre-emergent Herbicidal, Rye (injury rating) ([1]; Table I): 5
Pre-emergent Herbicidal, Rye (injury rating) ([1]; Table II): 5
Pre-emergent Herbicidal, Amaranthus (injury rating) ([2]; Table I): 1
Pre-emergent Herbicidal, Amaranthus (injury rating) ([2]; Table II): 1
Post-Emergent Herbicidal, Soybean (injury rating) ([3]; Table I): 1
Post-Emergent Herbicidal, Soybean (injury rating) ([3]; Table II): 1
Miticidal, Adult (control rating) [4]: A
LC50 [4]: 90 µg/mL (≈ 478 µM)
Miticidal, Egg (control rating) [5]: B
LC50 [5]: 500 µg/mL (≈ 2660 µM)

O=C1CCC(=O)C1c1ccc(Cl)cc1Cl [Cl Cl H H H, 2-(2',4'-Dichlorophenyl)-1,3-cyclopentanedione]
Pre-emergent Herbicidal, Rye (injury rating) ([1]; Table I): 1
Pre-emergent Herbicidal, Amaranthus (injury rating) ([2]; Table I): 1
Post-Emergent Herbicidal, Soybean (injury rating) ([3]; Table I): 1
Miticidal, Adult (control rating) [4]: A
Miticidal, Egg (control rating) [5]: B

O=C1CCC(=O)C1c1ccccc1Cl [Cl H H H H]
Pre-emergent Herbicidal, Rye (injury rating) ([1]; Table I): 5
Pre-emergent Herbicidal, Amaranthus (injury rating) ([2]; Table I): 1
Post-Emergent Herbicidal, Soybean (injury rating) ([3]; Table I): 1
Miticidal, Adult (control rating) [4]: B
Miticidal, Egg (control rating) [5]: C

Cc1ccccc1C1C(=O)c2ccccc2C1=O [Reference I Page 3, Compound 1, reference compound]
Pre-emergent Herbicidal, Rye (injury rating) ([1]; Table II): 1
Pre-emergent Herbicidal, Amaranthus (injury rating) ([2]; Table II): 2
Post-Emergent Herbicidal, Soybean (injury rating) ([3]; Table II): 0
LC50 [4]: 200 µg/mL (≈ 846 µM)
LC50 [5]: 500 µg/mL (≈ 2120 µM)

Cc1ccc(C)c(C2C(=O)c3ccccc3C2=O)c1 [Reference II Page 146, Compound 6, reference compound]
Pre-emergent Herbicidal, Rye (injury rating) ([1]; Table II): 1
Pre-emergent Herbicidal, Amaranthus (injury rating) ([2]; Table II): 1
Post-Emergent Herbicidal, Soybean (injury rating) ([3]; Table II): 0
LC50 [4]: 500 µg/mL (≈ 2000 µM)
LC50 [5]: 200 µg/mL (≈ 799 µM)

Cc1ccc(C2C(=O)c3ccccc3C2=O)c(C)c1 [Reference II Page 146, Compound 9, reference compound]
Pre-emergent Herbicidal, Rye (injury rating) ([1]; Table II): 4
Pre-emergent Herbicidal, Amaranthus (injury rating) ([2]; Table II): 3
Post-Emergent Herbicidal, Soybean (injury rating) ([3]; Table II): 0
LC50 [4]: 40 µg/mL (≈ 160 µM)
LC50 [5]: 110 µg/mL (≈ 439 µM)
